{
  "source": "patent US20040014187A1",
  "about": "“Bacterial carboxypeptidase cpg2 variants and their use in gene directed enzyme prodrug therapy” (priority 2000, published 2004)",
  "key": {"[1]": {"test_system": "WiDr cells", "conditions": "WiDr clone expressing CPG2*, previous study; read-out: IC50 for CMDA; cited from earlier work"}, "[2]": {"test_system": "SK-OV-3 cells", "conditions": "SK-OV-3 clone expressing CPG2* (1.013 U/mg), previous study; read-out: IC50 for CMDA; cited from earlier work"}, "[3]": {"test_system": "control cell lines expressing lacZ", "test": "Kinetics of cell death: toxicity of CMDA test concentrations to control cells", "format": "cell-based, human", "conditions": "2 mM CMDA (WiDr, SK-OV-3) or 1 mM CMDA (A2780)", "description": "To determine exposure times to CMDA required for the death of 50% of the cell populations, cell lines were plated at 3×10^5 cells per well in 6-well tissue culture plates, and allowed to grow to confluence. Tissue culture medium was replaced with 1 ml DMEM/FCS containing 2 mM CMDA (for WiDr and SK-OV-3 cell lines) or 1 mM CMDA (for A2780 cell lines). These concentrations are not toxic to control cell lines expressing lacZ. After 0.5, 1, 2, 4, 8, 12, and 16 h exposure, cells were trypsinized and approximately 3% were replated. After a further 4 d growth, cell survival was determined by [^3H]-thymidine incorporation (0.4 μCi/ml, 6h)."}, "[4]": {"test_system": "WiDr cells", "test": "Cytotoxicity of CMDA, [3H]-thymidine incorporation", "format": "cell-based, human", "description": "(§1) Cytotoxicity and bystander cytotoxicity assays were performed as described previously (Marais et al (1996) Cancer Res. 56, 4735-4742). Briefly, for cytotoxicity assays, cells were grown to confluence and treated twice, once for an hour, immediately followed by an 18 h treatment, using increasing amounts of CMDA prodrug in DMEM/FCS. Cells were trypsinized and approximately 3% were replated and allowed to grow for a further 4 days, when uptake of [^3H]-thymidine was used to infer survival. For bystander assays, mixtures of cells expressing stCPG2(Q)3 and cells of the same lineage expressing β-galactosidase were treated with a single concentration of CMDA in the same two-stage treatment protocol, using 2 mM CMDA for WiDr and SK-OV-3 cells and 1 mM CMDA for A2780 cells."}, "[5]": {"test_system": "SK-OV-3 cells", "test": "Cytotoxicity of CMDA, [3H]-thymidine incorporation", "format": "cell-based, human", "description": "as §1"}, "[6]": {"test_system": "A2780 cells", "test": "Cytotoxicity of CMDA, [3H]-thymidine incorporation", "format": "cell-based, human", "description": "as §1"}, "[7]": {"conditions": "patients, ADEPT trial; cited from earlier work"}, "[8]": {"test_system": "A2780 cells", "conditions": "A2780 clone expressing CPG2*, previous study; read-out: IC50 for CMDA; cited from earlier work"}},
  "note": "“And” between values parts separate entries of the source, which are not always exact repeats. Equal entries are not always repeated. Where two headings read alike, the source gives them in different places.",
  "data": [
    {"smiles": "CS(=O)(=O)OCCN(CCCl)c1ccc(C(=O)N[C@@H](CCC(=O)O)C(=O)O)cc1", "note": "[CMDA, N-4-[(2-chloroethyl) (2-mesyloxyethyl)amino]benzoyl-L-glutamic acid]", "values": [
      {"measurement": "IC50", "setting": "[1]", "result": 277, "unit": "µM"},
      {"measurement": "IC50", "setting": "[2]", "result": 258, "unit": "µM"},
      {"measurement": "toxicity to control cell lines expressing lacZ", "setting": "[3]", "result": "not toxic"},
      {"measurement": "Differential cytotoxicity (fold)", "setting": "[4]; WiDr clone W3 stCPG2(Q)3 versus lacZ", "result": 32.3, "unit": "fold"},
      {"measurement": "Differential cytotoxicity (fold)", "setting": "[4]; WiDr clone W4 stCPG2(Q)3 versus lacZ", "result": 22.0, "unit": "fold"},
      {"measurement": "IC50", "setting": "[4]; WiDr clones expressing stCPG2(Q)3, read-out: IC50 for CMDA", "result": "100 to 150 µM and 100 µM and 147 µM"},
      {"measurement": "IC50", "setting": "[4]; WiDr expressing lacZ (β-gal), read-out: IC50 (μM CMDA)", "result": 3230, "unit": "µM"},
      {"measurement": "Differential cytotoxicity (fold)", "setting": "[5]; SK-OV-3 clone S2.34 CPG2* versus lacZ", "result": 3.2, "unit": "fold"},
      {"measurement": "IC50", "setting": "[5]; SK-OV-3 clone S2.34 expressing CPG2*, read-out: IC50 (μM CMDA)", "result": 1290, "unit": "µM"},
      {"measurement": "Differential cytotoxicity (fold)", "setting": "[5]; SK-OV-3 clone S2.4 CPG2* versus lacZ", "result": 1.3, "unit": "fold"},
      {"measurement": "IC50", "setting": "[5]; SK-OV-3 clone S2.4 expressing CPG2*, read-out: IC50 (μM CMDA)", "result": 3200, "unit": "µM"},
      {"measurement": "IC50", "setting": "[5]; SK-OV-3 clone S5 expressing stCPG2(Q)3, read-out: IC50 (μM CMDA)", "result": 216, "unit": "µM"},
      {"measurement": "Differential cytotoxicity (fold)", "setting": "[5]; SK-OV-3 clone S5 stCPG2(Q)3 versus lacZ", "result": 19.4, "unit": "fold"},
      {"measurement": "IC50", "setting": "[5]; SK-OV-3 clone S6 expressing stCPG2(Q)3, read-out: IC50 (μM CMDA)", "result": 479, "unit": "µM"},
      {"measurement": "Differential cytotoxicity (fold)", "setting": "[5]; SK-OV-3 clone S6 stCPG2(Q)3 versus lacZ", "result": 8.7, "unit": "fold"},
      {"measurement": "IC50", "setting": "[5]; SK-OV-3 clone S7 expressing stCPG2(Q)3, read-out: IC50 (μM CMDA)", "result": 544, "unit": "µM"},
      {"measurement": "Differential cytotoxicity (fold)", "setting": "[5]; SK-OV-3 clone S7 stCPG2(Q)3 versus lacZ", "result": 7.7, "unit": "fold"},
      {"measurement": "increase in sensitivity compared to β-gal expressing cells", "setting": "[5]; SK-OV-3 clones expressing stCPG2(Q)3", "result": "7-20 fold"},
      {"measurement": "IC50", "setting": "[5]; SK-OV-3 clones expressing stCPG2(Q)3, read-out: IC50 for CMDA", "result": "216 to 544", "unit": "µM"},
      {"measurement": "IC50", "setting": "[5]; SK-OV-3 expressing lacZ, read-out: IC50 (μM CMDA)", "result": 4180, "unit": "µM"},
      {"measurement": "IC50", "setting": "[6]; A2780 clone A3 expressing stCPG2(Q)3", "result": 15.6, "unit": "µM"},
      {"measurement": "Differential cytotoxicity (fold)", "setting": "[6]; A2780 clone A3 stCPG2(Q)3 versus lacZ", "result": 138, "unit": "fold"},
      {"measurement": "IC50", "setting": "[6]; A2780 clone A4 expressing stCPG2(Q)3", "result": 20.4, "unit": "µM"},
      {"measurement": "Differential cytotoxicity (fold)", "setting": "[6]; A2780 clone A4 stCPG2(Q)3 versus lacZ", "result": 105, "unit": "fold"},
      {"measurement": "increase in sensitivity compared to β-gal expressing cells", "setting": "[6]; A2780 clones expressing stCPG2(Q)3", "result": "> 100", "unit": "fold"},
      {"measurement": "IC50", "setting": "[6]; A2780 expressing lacZ (β-gal)", "result": 2150, "unit": "µM"},
      {"measurement": "peak CMDA concentration in sera", "setting": "[7]", "result": "approximately 3 mM"},
      {"measurement": "IC50", "setting": "[8]", "result": 23.2, "unit": "µM"}
    ]}
  ]
}
